The NIST ThermoML archive (doi:10.1016/j.jct.2016.11.009)

Experiment: xn = mol fraction of the nth substance listed
Details: Fluid (supercritical or subcritical phases), Buoyancy - hydrostatic balance with magnetic suspension - one sinker

C [methane] + O=C=O
Details | mass density [kg/m3]
299.61 K, 4220 kPa, x2 = 0.6015 | 65.102
299.93 K, 5997 kPa, x2 = 0.3997 | 77.827
299.94 K, 6004 kPa, x2 = 0.6015 | 100.404
299.95 K, 9002 kPa, x2 = 0.2017 | 95.03
299.95 K, 15006 kPa, x2 = 0.8988 | 723.669
299.96 K, 5002 kPa, x2 = 0.6015 | 79.746
299.96 K, 7003 kPa, x2 = 0.3997 | 93.846
299.96 K, 7999 kPa, x2 = 0.2017 | 82.733
299.96 K, 8008 kPa, x2 = 0.8988 | 302.149
299.96 K, 12001 kPa, x2 = 0.3997 | 186.929
299.97 K, 5996 kPa, x2 = 0.7985 | 129.225
299.97 K, 6997 kPa, x2 = 0.2017 | 70.838
299.97 K, 8000 kPa, x2 = 0.3997 | 110.726
299.97 K, 10986 kPa, x2 = 0.8988 | 631.428
299.97 K, 13852 kPa, x2 = 0.0998 | 130.843
299.98 K, 2118 kPa, x2 = 0.0998 | 16.647
299.98 K, 4383 kPa, x2 = 0.0998 | 35.981
299.98 K, 7000 kPa, x2 = 0.6015 | 123.126
299.98 K, 7004 kPa, x2 = 0.8988 | 203.104
299.98 K, 8002 kPa, x2 = 0.6015 | 148.65
299.98 K, 8997 kPa, x2 = 0.3997 | 128.548
299.98 K, 8997 kPa, x2 = 0.8988 | 483.358
299.98 K, 9722 kPa, x2 = 0.0998 | 87.624
299.98 K, 10003 kPa, x2 = 0.7985 | 353.847
299.98 K, 10997 kPa, x2 = 0.7985 | 428.638
299.99 K, 4000 kPa, x2 = 0.2017 | 37.902
299.99 K, 4003 kPa, x2 = 0.3997 | 48.763
299.99 K, 4192 kPa, x2 = 0.0998 | 34.275
299.99 K, 4997 kPa, x2 = 0.7985 | 99.658
299.99 K, 6002 kPa, x2 = 0.2017 | 59.46
299.99 K, 10005 kPa, x2 = 0.2017 | 107.622
299.99 K, 12000 kPa, x2 = 0.2017 | 133.357
299.99 K, 12004 kPa, x2 = 0.6015 | 275.504
299.99 K, 12017 kPa, x2 = 0.8988 | 664.349
299.99 K, 14986 kPa, x2 = 0.0998 | 142.483
299.99 K, 18001 kPa, x2 = 0.2017 | 207.683
300 K, 3662 kPa, x2 = 0.2017 | 34.438
300 K, 6399 kPa, x2 = 0.0998 | 54.523
300 K, 7624 kPa, x2 = 0.0998 | 66.394
300 K, 8000 kPa, x2 = 0.7985 | 212.092
300 K, 10995 kPa, x2 = 0.3997 | 166.796
300 K, 14999 kPa, x2 = 0.2017 | 171.971
300 K, 17997 kPa, x2 = 0.6015 | 433.882
300.01 K, 5001 kPa, x2 = 0.2017 | 48.462
300.01 K, 8998 kPa, x2 = 0.7985 | 274.617
300.01 K, 9002 kPa, x2 = 0.6015 | 176.866
300.01 K, 11000 kPa, x2 = 0.2017 | 120.384
300.02 K, 2964 kPa, x2 = 0.0998 | 23.652
300.02 K, 3999 kPa, x2 = 0.7985 | 74.633
300.02 K, 6996 kPa, x2 = 0.7985 | 165.378
300.02 K, 9996 kPa, x2 = 0.6015 | 207.768
300.02 K, 10011 kPa, x2 = 0.8988 | 582.856
300.02 K, 15007 kPa, x2 = 0.3997 | 246.022
300.02 K, 18000 kPa, x2 = 0.0998 | 171.73
300.03 K, 5996 kPa, x2 = 0.8988 | 149.398
300.03 K, 10998 kPa, x2 = 0.6015 | 241.279
300.03 K, 11790 kPa, x2 = 0.0998 | 109.201
300.03 K, 17999 kPa, x2 = 0.8988 | 760.577
300.04 K, 5006 kPa, x2 = 0.8988 | 112.111
300.04 K, 6260 kPa, x2 = 0.0998 | 53.19
300.04 K, 12001 kPa, x2 = 0.7985 | 485.736
300.04 K, 14998 kPa, x2 = 0.6015 | 367.75
300.05 K, 18002 kPa, x2 = 0.3997 | 297.591
300.06 K, 5002 kPa, x2 = 0.3997 | 62.85
300.06 K, 17999 kPa, x2 = 0.7985 | 637.414
300.07 K, 9277 kPa, x2 = 0.0998 | 82.984
300.07 K, 14999 kPa, x2 = 0.7985 | 584.129
300.07 K, 16598 kPa, x2 = 0.0998 | 158.42
300.1 K, 4310 kPa, x2 = 0.8988 | 90.757
300.21 K, 10004 kPa, x2 = 0.3997 | 147.143
303.07 K, 10005 kPa, x2 = 0.8988 | 522.742
303.07 K, 11007 kPa, x2 = 0.8988 | 588.449
303.1 K, 11000 kPa, x2 = 0.6015 | 229.981
303.1 K, 12003 kPa, x2 = 0.0998 | 109.095
303.1 K, 18071 kPa, x2 = 0.7985 | 621.015
303.11 K, 4004 kPa, x2 = 0.8988 | 80.364
303.11 K, 9000 kPa, x2 = 0.0998 | 78.724
303.11 K, 9001 kPa, x2 = 0.7985 | 254.341
303.11 K, 17996 kPa, x2 = 0.2017 | 202.897
303.11 K, 18001 kPa, x2 = 0.0998 | 167.945
303.12 K, 3001 kPa, x2 = 0.0998 | 23.673
303.12 K, 10001 kPa, x2 = 0.7985 | 320.908
303.12 K, 11000 kPa, x2 = 0.0998 | 98.851
303.13 K, 3999 kPa, x2 = 0.2017 | 37.359
303.13 K, 4999 kPa, x2 = 0.3997 | 61.796
303.13 K, 6004 kPa, x2 = 0.7985 | 125.434
303.13 K, 6999 kPa, x2 = 0.2017 | 69.612
303.13 K, 11860 kPa, x2 = 0.7985 | 444.556
303.13 K, 11999 kPa, x2 = 0.2017 | 130.323
303.14 K, 3995 kPa, x2 = 0.6015 | 59.469
303.14 K, 7004 kPa, x2 = 0.6015 | 119.411
303.14 K, 8002 kPa, x2 = 0.0998 | 68.892
303.14 K, 17999 kPa, x2 = 0.6015 | 420.157
303.15 K, 5000 kPa, x2 = 0.0998 | 40.895
303.15 K, 8006 kPa, x2 = 0.6015 | 143.46
303.15 K, 9999 kPa, x2 = 0.6015 | 198.747
303.15 K, 10004 kPa, x2 = 0.0998 | 88.738
303.15 K, 11003 kPa, x2 = 0.7985 | 391.279
303.15 K, 12001 kPa, x2 = 0.3997 | 181.298
303.15 K, 14998 kPa, x2 = 0.7985 | 561.073
303.16 K, 4000 kPa, x2 = 0.7985 | 73.078
303.16 K, 4001 kPa, x2 = 0.3997 | 48.004
303.16 K, 5009 kPa, x2 = 0.6015 | 77.914
303.16 K, 6006 kPa, x2 = 0.0998 | 50.034
303.16 K, 7994 kPa, x2 = 0.7985 | 200.301
303.16 K, 8000 kPa, x2 = 0.3997 | 108.241
303.16 K, 8016 kPa, x2 = 0.8988 | 253.316
303.16 K, 8992 kPa, x2 = 0.8988 | 374.284
303.16 K, 8999 kPa, x2 = 0.6015 | 169.77
303.17 K, 4998 kPa, x2 = 0.2017 | 47.685
303.17 K, 5005 kPa, x2 = 0.8988 | 108.149
303.17 K, 6001 kPa, x2 = 0.2017 | 58.474
303.17 K, 9001 kPa, x2 = 0.2017 | 93.089
303.17 K, 14997 kPa, x2 = 0.0998 | 139.317
303.17 K, 18000 kPa, x2 = 0.8988 | 742.988
303.18 K, 4002 kPa, x2 = 0.0998 | 32.139
303.18 K, 5999 kPa, x2 = 0.3997 | 76.379
303.18 K, 6996 kPa, x2 = 0.3997 | 91.801
303.18 K, 7001 kPa, x2 = 0.8988 | 186.521
303.18 K, 7999 kPa, x2 = 0.2017 | 81.148
303.19 K, 7000 kPa, x2 = 0.0998 | 59.247
303.19 K, 12002 kPa, x2 = 0.6015 | 261.85
303.19 K, 15005 kPa, x2 = 0.2017 | 167.871
303.2 K, 5001 kPa, x2 = 0.7985 | 97.235
303.2 K, 8999 kPa, x2 = 0.3997 | 125.402
303.2 K, 10993 kPa, x2 = 0.3997 | 162.067
303.2 K, 10996 kPa, x2 = 0.2017 | 117.65
303.21 K, 7002 kPa, x2 = 0.7985 | 158.82
303.21 K, 9999 kPa, x2 = 0.3997 | 143.458
303.21 K, 15000 kPa, x2 = 0.8988 | 701.018
303.21 K, 17999 kPa, x2 = 0.3997 | 288.435
303.22 K, 9998 kPa, x2 = 0.2017 | 105.223
303.22 K, 15003 kPa, x2 = 0.6015 | 352.168
303.23 K, 6005 kPa, x2 = 0.6015 | 97.567
303.26 K, 6002 kPa, x2 = 0.8988 | 141.868
